Laboratory results: patent US20260263442A1, “METHOD FOR TREATING L-DOPA-INDUCED DYSKINESIA USING BEFIRADOL” (Neurolixis, Inc., priority 2023, published 2026)

Tests used:
[1] = system: overactive bladder in PD patients with LID; assay: ICIQ Overactive Bladder Module (ICIQ-OAB), Phase 2a study; assay type: in vivo, human
Description: The ICIQ-OAB provides a brief and robust measure to assess the impact of symptoms of overactive bladder on quality of life and outcome of treatment. It is a 4-item patient reported outcome covering 4 domains of bladder function: frequency, nocturia, urgency, and urge urinary incontinence. Each item is scored by frequency of 0-4, for a total score of 0-16. Ratings would be based on the previous month or since the last clinic visit. Efficacy would be assessed as change from the baseline total score.

[2] = in vivo; cited from earlier work
[3] = system: quality of life in PD patients with LID; assay: Parkinson's Disease Questionnaire (PDQ39), Phase 2a study; assay type: in vivo, human
Description: The PDQ39-item patient reported outcome of health status and quality of life and is the most frequently used disease-specific health status measure for PD. The questionnaire assesses how often people affected by PD experience difficulties across 8 dimensions of daily living. The standard PDQ39 assesses quality of life over the previous month. In this study the initial time period assessed at the Baseline Visit would be the previous month, with subsequent assessments for the intervening period since the last clinic visit (about 3 weeks). The 8 quality of life dimensions covered in the questionnaire are: • Mobility (10 items #1-10) • ADL (6 items #11-16) • Emotional Well Being (6 items #17-22) • Stigma (4 items #23-26) • Social Support (3 items #27-29) • Cognition (4 items #30-33) • Communications (3 items #34-36) • Bodily Discomfort (3 items #37-39) Individual items are rated by the patient on a scale of […]. Dimension scores are calculated on a scale of 0 to 100. The total score and individual dimension scores would be assessed for change from baseline.

[4] = system: anxiety and depression in PD patients with LID; assay: Hospital Anxiety Depression Scale (HADS), Phase 2a study; assay type: in vivo, human
Description: The HADS is used to determine the levels of anxiety and depression that a person is experiencing. The questionnaire consists of 7 items related to anxiety and 7 related to depression. Each item on the questionnaires is scored from 0-3, which means that a person can score between 0 and 21 for either anxiety or depression.

[5] = change from baseline at day 28 (end of up-titration period), Per Protocol Set, n = 15
[6] = change from baseline at day 42 (end of stable dosing period), Per Protocol Set, n = 15
[7] = Baseline, Per Protocol Set, n = 15

In the case of `Cc1ccc(CNCC2(F)CCN(C(=O)c3ccc(F)c(Cl)c3)CC2)nc1` [NLX-112], the “Incontinence (ICIQ-OAB), effect” value ([1]; Days 28 or 42) was “no consistent statistically significant effect”, the “ICIQ-OAB, Δ D28, mean (S.D.)” value [1, 5] was 0.7 (6.5) and the “ICIQ-OAB, Δ D42, mean (S.D.)” value [1, 6] was −0.8 (8.02). The “Blood concentrations that could be associated with side effects, such as dizziness” value [2] was “higher than 15 ng/ml”, the “Quality of life (PDQ39 score), effect” value ([3]; Days 28 or 42) was “no consistent statistically significant effect” and the “PDQ39, Δ D28, mean (S.D.)” value [3, 5] was −1.5 (8.0). The “PDQ39, Δ D42, mean (S.D.)” value [3, 6] was −0.6 (6.5), the “HADS (Anxiety), Baseline, mean (S.D.)” value [4, 7] was 4.5 (2.5) and the “HADS (Depression), Baseline, mean (S.D.)” value [4, 7] was 3.7 (2.7). The “Anxiety and depression (HADS), effect” value ([4]; Days 28 or 42) was “no consistent statistically significant effect”, the “HADS (Anxiety), Δ D28, mean (S.D.)” value [4, 5] was −0.5 (2.5) and the “HADS (Depression), Δ D28, mean (S.D.)” value [4, 5] was −0.4 (1.7). The “HADS (Depression), Δ D42, mean (S.D.)” value [4, 6] was −0.6 (1.9).
